PMC4167698, “Fatty Acid Esters of Phloridzin Induce Apoptosis of Human Liver Cancer Cells through Altered Gene Expression” (PLoS ONE, 2014)

Columns and labels:
[1] = tested on: BALB-MC.E12 mouse mammary tumor cells; set-up: method as in PMID 17827407; conditions: antitumor activity study of apple polyphenols; cited from earlier work
HepG2 cells [2] = experiment: Annexin V/7-AAD apoptosis/necrosis fluorescence microscopy; assay type: cell-based, human; conditions: HepG2, 100 µM, 24 h
Description: HepG2 cells were seeded into Nunc Lab-Tek two chamber slide (Sigma-Aldrich Canada) at a density of 1×10^6 cells/chamber. […] The slides were washed with diluted phosphate buffered saline. After removing the chamber, each slide was added with 50 µL of Dual Detection Reagent containing apoptosis detection reagent (Annexin V-EnzoGold) and necrosis detection reagent (7-AAD) in 1X binding buffer. The samples were incubated at room temperature for 15 min in the dark. After staining, the cells were washed with binding buffer and covered with a glass coverslip. The stained cells were observed under a fluorescence Zeiss Axiovert 200 m inverted microscope (Carl Zeiss, Toronto, ON, Canada) at magnification of ×40 with a filter set for Annexin V-EnzoGold (Ex/Em: 550/570 nm) and 7-AAD (Ex/Em: 546/647 nm).

[3] = glycosylation at 2-OH; cited from earlier work
B16 mouse melanoma cells = tested on: B16 mouse melanoma cells; set-up: method as in PMID 17827407; conditions: antitumor activity study of apple polyphenols; cited from earlier work
HepG2 cells [4] = experiment: Morphologic observation under inverted phase contrast microscope; assay type: cell-based, human; conditions: HepG2, 100 µM, 24 h
Description: After 24 h of treatment, the morphology of HepG2 cells was observed under an inverted phase contrast microscope (Nikon Eclipse E 100, Nikon, Mississauga, ON, Canada) and were captured at 400X magnification using Infinity digital microscopy camera (Lumenera corporation, Ottawa, ON, Canada).

[5] = tested on: normal human hepatocytes (HP-F); experiment: MTS cell viability assay, normal human hepatocytes; assay type: cell-based; conditions: Hepatocyte, 24 h
Description: Cell viability was determined by using the MTS assay. In brief, HepG2 cells (5×10^3 cells/100 µL/well), MDA-MB-231 (5×10^3 cells/100 µL/well), THP-1 (25×10^3/100 µL/well), normal human and rat hepatocytes (1×10^4 cells/100 µL/well) were plated in triplicate, in a 96 well sterile flat bottom tissue culture plates. […] Thereby, cells were exposed to various concentrations (0.1, 1, 10, 25, 50, 75, 100 µM) of each treatment. Controls consist of cells with media containing DMSO (<0.5%), test blank wells contained the test compound in media with no cells and blank wells contained media with no cells. After additional 3, 6, 12, 18 or 24 h, 20 µL of the MTS reagent in combination with the electron coupling agent, phenazine methosulfate were added to the wells and cells were incubated in a humidified incubator for 3 h. Absorbance at 490 nm (OD490) was measured by using a Flurostar Optima microplate reader (BMG Labtech, Cary, NC, USA) to obtain the number of viable cells relative to the control population. Percentage of viability of the test compound treated cells are expressed as percentage compared to control (<0.5% DMSO). […] The selective index (SI) of the fatty acid esters of phloridzin is defined as the ratio of cytotoxicity (EC50 values) on normal HP-F cells to solid cancer HepG2, MDA-MB-231 cells (SI = EC50 on HP-F cells/EC50 on solid cancer cells). Samples with SI values greater than three were considered to have high selectivity towards cancer cells.

HepG2 cells [6] = experiment: LDH release cytotoxicity assay; assay type: cell-based, human; conditions: HepG2, 100 µM, 6 h, relative to maximum release by 1% Triton X-100
Description: Lactate dehydrogenase (LDH) is a stable cytosolic enzyme that is released upon membrane damage in apoptotic/necrotic cells. LDH activity was measured using CytoTox 96 Non-Radioactive Cytotoxicity Assay (Promega, Madison, WI, USA), in which LDH released in culture supernatants is measured with a coupled enzymatic assay, resulting in conversion of a tetrazolium salt into a red formazan product. […] After centrifugation, the supernatant was removed to an assay plate, and the LDH released from the cells into culture medium was measured. The maximal release was obtained after treating control cells with 1% Triton X-100 for 30 min at room temperature. The apoptotic/necrotic percentage was expressed using the formula: (sample value/maximal release)×100%.

HepG2 cells [7] = experiment: Mitochondrial membrane potential (JC-1); assay type: cell-based, human; conditions: HepG2, 100 µM, 24 h
Description: HepG2 cells were seeded in a black walled clear bottom 96-well sterile flat bottom tissue culture plates (BD Biosciences, USA) at a density of 5×10^4 cells/well (100 µL) and incubated in a CO2 incubator for 24 h at 37°C. […] The staining solution JC-1 was prepared with PBS and 5 µM was added to each well. The cells were further incubated in a CO2 incubator at 37°C for 1 h. After washing the plate with PBS twice, the fluorescence was measured using a Fluostar Optima microplate reader (BMG Labtech) at 535 nm for JC-1 monomers and at 590 nm for JC-1 aggregates.

DNA topo IIα = tested on: DNA topo IIα; set-up: method as in PMID 7769390; conditions: cited from earlier work
[8] = tested on: LNCaP prostate cancer cells; set-up: method as in PMID 20714300; conditions: 100 µM; cited from earlier work

O=C(CCc1ccc(O)cc1)c1c(O)cc(O)cc1O[C@@H]1O[C@H](CO)[C@@H](O)[C@H](O)[C@H]1O [Phloridzin, phloretin 2′-O-glucoside]
proliferation of BALB-MC.E12 mouse mammary tumor cells [1]: did not affect the proliferation
apoptosis/necrosis by Annexin V/7-AAD staining (HepG2 cells [2]): less apoptotic death of cells
decrease of antioxidant activities in comparison to phloretin [3]: 18 times
proliferation of transplanted B16 mouse melanoma cells (B16 mouse melanoma cells): did not affect the proliferation
apoptotic morphological changes (HepG2 cells [4]): no effect
EC50 [5]: > 100 µM

O=C(CCc1ccc(O)cc1)c1c(O)cc(O)cc1O [Phloretin]
LDH release (HepG2 cells [6]): 7.9±0.5%
apoptosis/necrosis by Annexin V/7-AAD staining (HepG2 cells [2]): less apoptotic death of cells
mitochondrial membrane potential (HepG2 cells [7]): significant (P<0.05) reduction
DNA topo IIα unknotting activity (DNA topo IIα): inhibit DNA topo IIα unknotting activity
TRAIL-induced apoptosis and cytotoxicity [8]: augmented
